Assay results as given in ChEMBL document CHEMBL1821652, “QSAR models for predicting enzymatic hydrolysis of new chemical entities in 'soft-drug' design” (Bioorg Med Chem, 2009).

Assay: Half life in human plasma
Format: ADME, cell-free

Structure (SMILES)	half-life
Nc1ccc(S(=O)(=O)N(COC(=O)c2ccccc2)c2cncs2)cc1	0.12 min
CCCCC(=O)OCn1cnc2c1c(=O)n(C)c(=O)n2C	0.19 min
CCOC(=O)CNC(=O)OCOC(=O)c1ccccc1	0.24 min
CCOC(=O)CN(C)C(=O)OCOC(=O)c1ccccc1	0.41 min
CCOC(=O)CNC(=O)OCOC(=O)c1cccnc1	0.43 min
CCCN(CCC)Cc1cccc(C(=O)OCCOCn2cnc3c(=O)[nH]c(N)nc32)c1	0.8 min
CCOC(=O)c1ccc(/N=N/N(C)C(=O)OCOC(=O)c2ccccc2OC(C)=O)cc1	1 min
Nc1ccc(S(=O)(=O)N(COC(=O)c2ccccc2)c2ncccn2)cc1	1.38 min
CCOC(=O)CNC(=O)OCOC(=O)C(C)(C)Oc1ccc(Cl)cc1	1.63 min
CCCCC(=O)OCN1C(=O)NC(c2ccccc2)(c2ccccc2)C1=O	1.9 min
CS(=O)(=O)N(COC(=O)c1ccccc1)c1ccc([N+](=O)[O-])cc1Oc1ccccc1	1.93 min
CCCCN(CCCC)Cc1cccc(C(=O)OCCOCn2cnc3c(=O)[nH]c(N)nc32)c1	2.3 min
CCOC(=O)CN(C)C(=O)OCOC(=O)[C@@H](C)c1ccc2cc(OC)ccc2c1	2.72 min
COC(=O)[C@@H]1CCCN1C(=O)OCOC(=O)c1ccccc1	3.48 min
CCOC(=O)CNC(=O)OCOC(=O)Cc1ccccc1Nc1c(Cl)cccc1Cl	4.17 min
Nc1nc2c(ncn2COCCOC(=O)c2cccc(CN3CCOCC3)c2)c(=O)[nH]1	4.6 min
CCOC(=O)CN(COC(=O)[C@@H]1N2C(=O)[C@@H](NC(=O)Cc3ccccc3)[C@H]2SC1(C)C)C(=O)c1ccccc1	5.1 min
O=C(OC[C@H]1O[C@@H](n2cc(F)c(=O)[nH]c2=O)C[C@@H]1O)[C@@H]1CCCN1	5.7 min
Cc1noc(N(COC(=O)c2ccccc2)S(=O)(=O)c2ccc(N)cc2)c1C	5.78 min
O=C(OC[C@H]1O[C@@H](n2cc(F)c(=O)[nH]c2=O)C[C@@H]1OC(=O)[C@@H]1CCCN1)[C@@H]1CCCN1	6 min
C[C@H](NC(=O)[C@H](N)CCC(=O)OCc1ccc([N+](=O)[O-])cc1)C(=O)O	6.8 min
CC(=O)OCOC(=O)N(C)/N=N/c1ccc(C#N)cc1	7 min
CN(C)Cc1cccc(C(=O)OCCOCn2cnc3c(=O)[nH]c(N)nc32)c1	7 min
C[C@H](NC(=O)[C@H](N)CC(=O)OCc1ccc([N+](=O)[O-])cc1)C(=O)O	7.2 min

Structure (SMILES)	half-life
CCN(CC)Cc1cccc(C(=O)OCCOCn2cnc3c(=O)[nH]c(N)nc32)c1	7.5 min
Nc1nc2c(ncn2COCCOC(=O)c2cccc(CN3CCCCC3)c2)c(=O)[nH]1	8.5 min
CCN(CC)C(=O)COC(=O)[C@H]1O[C@@H](Oc2cc3oc(-c4ccc(O)cc4)cc(=O)c3c(O)c2O)[C@H](O)[C@@H](O)[C@@H]1O	10 min
CCOC(=O)CN(COC(=O)[C@@H]1N2C(=O)[C@@H](NC(=O)c3c(-c4c(Cl)cccc4Cl)noc3C)[C@H]2SC1(C)C)C(=O)c1ccccc1	10.1 min
Cc1ncc([N+](=O)[O-])n1CCOC(=O)CCCCCCCCC(=O)OCCn1c([N+](=O)[O-])cnc1C	10.2 min
CCCCOC(=O)[C@H](Cc1ccccc1)NC(=O)CN.Cl	11.5 min
CCOC(=O)c1ccc(/N=N/N(C)C(=O)OCOC(C)=O)cc1	12 min
CCOC(=O)CN(COC(=O)c1ccccc1)C(=O)c1ccccc1	12 min
O=C(O[C@H]1C[C@H](n2cc(F)c(=O)[nH]c2=O)O[C@@H]1CO)[C@@H]1CCCN1	13.8 min
CC(=O)OCOC(=O)N(C)/N=N/c1ccc(C)cc1	15 min
Cc1ncc([N+](=O)[O-])n1CCOC(=O)CCCCC(=O)OCCn1c([N+](=O)[O-])cnc1C	16.8 min
CC(=O)OCOC(=O)N(C)/N=N/c1ccc(Br)cc1	17 min
CCCCC(=O)OC[C@H]1O[C@@H](n2cnc3c(NC4CCCC4)ncnc32)[C@H](O)[C@@H]1O	18 min
Cc1cn([C@H]2C=C[C@@H](COC(=O)CN3CCNCC3)O2)c(=O)[nH]c1=O	20 min
CCOC(=O)CNC(=O)OCOC(=O)c1ccccc1Nc1cccc(C(F)(F)F)c1	21.8 min
CCOC(=O)CSCC(=O)[C@@]12OC(C)(C)O[C@@H]1C[C@H]1[C@@H]3C[C@H](F)C4=CC(=O)C=C[C@]4(C)[C@@]3(F)[C@@H](O)C[C@@]12C	24 min
CC(C)C(=O)Oc1ccc2c3c1O[C@H]1C(=O)CC[C@@]4(O)[C@@H](C2)N(CC2CC2)CC[C@]314	24.6 min
CCN(CC)Cc1ccc(C(=O)OCCOCn2cnc3c(=O)[nH]c(N)nc32)cc1	17 min
CCCCC/C=C\C/C=C\C/C=C\CCCCC(=O)OCn1cnc2c1c(=O)n(C)c(=O)n2C	27.3 min
CCCCCCCC(=O)OC[C@H]1O[C@@H](n2cnc3c(NC4CCCC4)ncnc32)[C@H](O)[C@@H]1O	28 min
NCCCC[C@H](N)C(=O)OC[C@H]1O[C@@H](n2cc(F)c(=O)[nH]c2=O)C[C@@H]1OC(=O)[C@@H](N)CCCCN	29.5 min
Cc1cn([C@H]2C=C[C@@H](COC(=O)CN(C)C)O2)c(=O)[nH]c1=O	30 min
CCC(=O)Oc1c(-c2ccc(O)c(O)c2)oc2cc(O)cc(O)c2c1=O	31.2 min
CC(C)CC(=O)Oc1ccc2c3c1O[C@H]1C(=O)CC[C@@]4(O)[C@@H](C2)N(CC2CC2)CC[C@]314	32.4 min

Structure (SMILES)	half-life
CN(C)Cc1ccc(C(=O)OCCOCn2cnc3c(=O)[nH]c(N)nc32)cc1	33 min
CCN(CC)CC(=O)OCCn1c([N+](=O)[O-])cnc1C.Cl	33.6 min
CCOC(=O)c1ccc(/N=N/N(C)C(=O)OCOC(=O)c2ccccc2O)cc1	34 min
Cc1ncc([N+](=O)[O-])n1CCOC(=O)CCCC(=O)OCCn1c([N+](=O)[O-])cnc1C	36.6 min
COc1ccc2cc([C@H](C)C(=O)OCCOCCO)ccc2c1	38.6 min
NCCCC[C@H](N)C(=O)OC[C@H]1O[C@@H](n2cc(F)c(=O)[nH]c2=O)C[C@@H]1O	38.8 min
CC(C)OC(=O)Oc1ccc2c3c1O[C@H]1C(=O)CC[C@@]4(O)[C@@H](C2)N(CC2CC2)CC[C@]314	39 min
O=C(OCN(C(=O)c1ccccc1)c1ccccc1)c1ccccc1	40 min
Cc1cc(C)nc(N(COC(=O)c2ccccc2)S(=O)(=O)c2ccc(N)cc2)n1	41.4 min
CCCCCCCCOC(=O)[C@H](Cc1ccccc1)NC(=O)CN.Cl	42.5 min
O=C(OC[C@H]1O[C@@H](n2cnc3c(NC4CCCC4)ncnc32)[C@H](O)[C@@H]1O)C1CCCCC1	45 min
CCCN(CCC)S(=O)(=O)c1ccc(C(=O)OCN(CC(=O)OCC)C(=O)c2ccccc2)cc1	46 min
CCC1CCN(CC(=O)OCCn2c([N+](=O)[O-])cnc2C)CC1	46.5 min
CCOC(=O)c1ccc(/N=N/N(C)C(=O)OCOC(=O)c2ccccc2)cc1	47 min
NCCCC[C@H](N)C(=O)O[C@H]1C[C@H](n2cc(F)c(=O)[nH]c2=O)O[C@@H]1CO	51 min
N[C@@H](CC(=O)O)C(=O)O[C@H]1C[C@H](n2cc(F)c(=O)[nH]c2=O)O[C@@H]1CO	53.9 min
CCCN(CCC)Cc1ccc(C(=O)OCCOCn2cnc3c(=O)[nH]c(N)nc32)cc1	9 min
Cc1cn([C@H]2C=C[C@@H](COC(=O)CNNC(=O)c3ccncc3)O2)c(=O)[nH]c1=O	60 min
Cc1cn([C@H]2C=C[C@@H](COC(=O)CNC(=O)c3ccncn3)O2)c(=O)[nH]c1=O	60 min
Cc1cn(CCOC(=O)CC[C@H](N)C(=O)N(C)CC(=O)O)c(=O)[nH]c1=O	61.3 min
CCCCCCCCCCOC(=O)[C@H](Cc1ccccc1)NC(=O)CN.Cl	61.5 min
CCCC(=O)Oc1c(-c2ccc(O)c(O)c2)oc2cc(O)cc(O)c2c1=O	63 min
COc1ccc2cc([C@H](C)C(=O)OCN(C)C(=O)c3ccccc3)ccc2c1	72 min
CC(C)C[C@H]1NC(=O)[C@H](Cc2ccccc2)NC(=O)CNC(=O)[C@@H](C)NC(=O)[C@H](Cc2ccc(O)cc2)NC(=O)/C=C\c2ccccc2OC1=O	72 min

Structure (SMILES)	half-life
CN(CC(=O)O)C(=O)[C@@H](N)CCC(=O)OCCOCn1cnc2c(=O)[nH]c(N)nc21	72.7 min
CN(CC(=O)O)C(=O)[C@@H](N)CCC(=O)OCc1ccccc1	73.2 min
CCCCCCCCCCCC(=O)Oc1c(-c2ccc(O)c(O)c2)oc2cc(O)cc(O)c2c1=O	73.2 min
CCOC(=O)CN(COC(=O)[C@@H](C)c1ccc2cc(OC)ccc2c1)C(=O)c1ccccc1	78 min
O=C(OCc1ccccc1)[C@H]1O[C@@H](Oc2cc3oc(-c4ccc(O)cc4)cc(=O)c3c(O)c2O)[C@H](O)[C@@H](O)[C@@H]1O	88 min
CCCCOC(=O)[C@@H](N)Cc1ccc(O)c(O)c1	96 min
C[C@H](NC(=O)[C@H](N)CCC(=O)OCCc1ccccc1)C(=O)O	97 min
CC(C)(C)C(=O)OCN(c1ccc([N+](=O)[O-])cc1Oc1ccccc1)S(C)(=O)=O	102 min
N[C@@H](Cc1ccc(O)c(O)c1)C(=O)OCCCCO	105 min
CCCCCCCCCCCCOC(=O)[C@H](Cc1ccccc1)NC(=O)CN.Cl	112 min
C[C@H](NC(=O)[C@H](N)CCC(=O)OCc1ccc(F)cc1)C(=O)O	120 min
CC(C)C[C@H]1NC(=O)[C@H](Cc2ccccc2)NC(=O)CNC(=O)[C@@H](C)NC(=O)[C@H](Cc2ccc(O)cc2)NC(=O)OCOC1=O	124 min
CCCCC(=O)OCOC(=O)Cc1c(C)n(C(=O)c2ccc(Cl)cc2)c2ccc(OC)cc12	124 min
C[C@]12CCC(=O)C=C1CC[C@@H]1[C@@H]2[C@@H](O)C[C@@]2(C)[C@H]1CC[C@]2(O)C(=O)OCCl	132 min
C[C@H](NC(=O)[C@H](N)CCC(=O)OCc1ccccc1)C(=O)O	158 min
CCOC(=O)CN(COC(=O)Cc1ccccc1Nc1c(Cl)cccc1Cl)C(=O)c1ccccc1	162 min
CN(CC(=O)O)C(=O)[C@@H](N)CC(=O)OCc1ccccc1	180 min
CCCSc1ccc2c(c1)nc(NC(=O)OC)n2C(=O)OCC	8.32 min
CCCSc1ccc2nc(NC(=O)OC)n(C(=O)OCC)c2c1	7.19 min
Nc1nc(O)c2ncn(COCCOC(=O)c3ccc(CN4CCOCC4)cc3)c2n1	3.7 min
CCCSc1ccc2c(c1)nc(NC(=O)OC)n2COC(=O)c1ccc(CN)cc1.Cl.Cl	55.8 min
N[C@@H](CC(=O)O)C(=O)OC[C@H]1O[C@@H](n2cc(F)c(=O)[nH]c2=O)C[C@@H]1O	38.6 min
